In one series the target is T1, motilin receptor (Oryctolagus cuniculus, UniProt G1T803).
T1 construct: from tissue; host or cells: rabbit antral smooth muscle membranes
In words: Determination of motilin receptor binding affinity (displacement of [125I-Tyr7, Nle13]motilin(porcine)). Also noted: species or system rabbit. The protocol: The motilin receptor binding affinity of the peptides of this invention was determined by using the general procedure of Bormans, Peelers and Vantrappen, Regul. […] Fitting was performed using the iterative least-squares procedure of the SAS-software package (SAS Institute, Inc., Cary, N.C., USA).
Background: In a radioligand displacement assay an active substance lowers the binding of a labelled ligand.

The target of series [1] is segments of rabbit duodenum (Oryctolagus cuniculus, UniProt G1T803). Briefly: Rabbit duodenal smooth muscle strip tissue bath assay. The format is cell-based. To be noted: negative logarithm of the dose giving 50% of the maximal response to motilin; isotonic contraction of rabbit duodenum segments. The method, boiled down:
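Isotonic contraction of rabbit duodenal segments after 1 h equilibration and 10^-4 M acetylcholine challenge; cumulative compound curve over 10^-11 to 10^-4 M, then 10^-7 M motilin. Runs discarded if final acetylcholine response differed >5%. EC50 at 50% of maximal motilin response, reported as pEC50.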

The format of series [2] is in vitro ADME, hog. The note with it: pH 7. On the procedure: Like most small linear polypeptides, motilin is believed to be metabolized lo by the brush border cells of the kidney. Therefore, kidney homogenate was chosen as the model system for assessing the relative in vivo biostability of the peptides of this invention. All peptides to be studied were incubated in hog kidney (Pel Freeze, Inc., Rogers, Ark.) (2% w/v; final volume=4 ml; buffer=HEPES pH 7.0) at 25° C. Both initial substrate concentration and internal standard (Fmoc-Gly) concentration were 0.5 mg/ml. In order to determine suitable incubation times and sampling intervals, two experiments were conducted with each polypeptide. The first run served as a rough estimate of peptide stability. All sampling was performed in duplicate. Sample volume was 180 μl.
Sample clean-up was performed by addition of 20 μl of 100% TCA (final volume=200 μl; final TCA concentration=10%). The sample was vortexed for from 5 to 10 seconds to ensure equilibration, then centrifuged to spin out the precipitated proteins. Analysis was carried out on a Waters HPLC system with a WISP autoinjector, a 5μ Vydac C-18 analytical column, and a Waters 481 UV detector set at 214 nm. Injection volume was 80 μl. Initial solvent conditions were […] in Milli-Q water with a 35 minute gradient running to 63% acetonitrile/37% (0.1%) TFA at 1 ml/min.
Polypeptide substrate and metabolite peaks were ratioed to the internal standard and the duplicate sample ratios were averaged. The avenge ratio for the peptide substrate was expressed as a percentage and plotted versus time. First-order kinetics was assumed for data treatment. The rate of disappearance of the substrate was calculated using the Enzfitter program (Biosoft). Relative half-lives were determined from the relationship: […]

For series [3], the system named is canine gastrointestinal tract. Briefly: Contractile activity in the canine gastrointestinal tract. The format is in vivo, dog. The note with it: anesthetized dogs, intra-arterial injection to a duodenal segment; amount giving 50% of the calibration response to field stimulation. The protocol:
Mongrel dogs of either sex were anesthetized with sodium pentobarbital 65 mg/kg intravenously. A mid-line incision was made in the abdomen. A duodenal segment was located, the terminal arteries to that segment were identified, and the closest possible artery of the appropriate size was rubbed clean of fat and fascia. A needle of suitable diameter was bent at an angle and the tip inserted in the cleaned artery. The needle was held in position in the artery for approximately 30 seconds until vascular spasm has relaxed and then a catheter assembly was inserted into the artery and tied into position with 000 silk sutures. The fine polyethylene catheter (10-15 cm) was cut to a point at one end with a needle inserted at the other end. The hub of the needle was fitted with a 3-way stopcock and the catheter assembly was filled with heparinized Krebs Ringer bicarbonate containing 10 mM glucose. A bolus of Krebs (free of air) was injected into the arterial catheter and the distribution of blanching in the segment noted. If the area was too large, collateral arteries may be tied off as long as circulation to the area was maintained. A Bass type strain gauge was then sutured to the serosa, and oriented so that circular muscle contractions can be recorded on a Beckman R611 dynograph. Silver wire electrodes were inserted subserosally on either side of the strain gauge and were connected through stimulus isolation units to a Grass S88 electrical stimulator. Electrical field stimulation was applied at 40 V 0.5 ms and 5 pps and the amplitude of the pen recorder was set to contain the contractile response.
All peptides to be injected were dissolved in Krebs and serial dilutions were prepared so that for any concentration the maximum volume to be injected was 1 ml. All solutions except stock Krebs were held on ice for the day of the experiment and discarded at the end of the day. For determination of a dose-response curve, the site was first injected with a bolus of approximately 1 ml of heparinized Krebs to provide a flush control. Peptide agonists (in volumes of 1 ml flushed with 1 ml of Krebs) were injected in logarithmic increments until a response which was maximal in amplitude was obtained. The injection site was then flushed with Krebs containing 0.1% BSA to displace any peptide remaining in the arterial line. For peptides acting at the motilin receptor, care was taken not to inject supramaximal doses as these will induce tachyphylaxis. Therefore, as responses become apparent, 0.3 or 0.5 log unit increments were used. A site was used for a dose-response determination only every 1/2 to 1 hour.
The amplitude of the calibration response to field stimulation in each site was measured and used as 100% for that site. The amplitude of the response to the agonist at each dose was determined, calculated as a % of the calibration response and plotted against the concentration. The ED50 of the response represents the amount of agonist required to produce a response which was 50% of the calibration response.

The conditions of series [4]: in vivo; cited from earlier work.
Setting [5] is: negative logarithm of the concentration displacing 50% of [125I-Tyr7, Nle13]motilin(porcine) from rabbit antral smooth muscle membranes, read-out: pIC50 (converted).

As usually defined, the pEC50 is −log10 of the EC50, conventionally taken in molar units. Higher therefore signals a low EC50. By Kd is commonly meant the concentration at which binding is half-saturated.

Read-outs that look alike come from different tables or passages of the source. Square brackets hold non-standard residues; d marks the D form. Ends that are not written are not given here. Peptide text beside a SMILES is read from it. * marks the point of attachment. X1 = C[N+](C)(C)[C@@H](Cc1ccccc1)C(=O)*; NMe2Phe = CN(C)[C@@H](Cc1ccccc1)C(=O)*; NMeF = CN[C@@H](Cc1ccccc1)C(=O)O

T1 sequence (G1T803 1-400): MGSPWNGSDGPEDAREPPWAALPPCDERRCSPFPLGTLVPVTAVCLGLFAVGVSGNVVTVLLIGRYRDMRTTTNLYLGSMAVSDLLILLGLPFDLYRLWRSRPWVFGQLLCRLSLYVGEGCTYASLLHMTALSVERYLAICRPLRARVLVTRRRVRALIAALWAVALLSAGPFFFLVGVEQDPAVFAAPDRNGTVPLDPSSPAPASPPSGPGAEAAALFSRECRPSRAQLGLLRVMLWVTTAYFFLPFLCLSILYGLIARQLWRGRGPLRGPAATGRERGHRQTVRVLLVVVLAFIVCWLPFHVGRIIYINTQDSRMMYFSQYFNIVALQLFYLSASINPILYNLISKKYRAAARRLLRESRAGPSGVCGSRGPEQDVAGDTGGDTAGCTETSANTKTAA
segments of rabbit duodenum, sequence (G1T803 1-400): as above

Turning to `CC[C@H](C)[C@H](NC(=O)[C@@H]1CCCN1C(=O)[C@@H](NC(=O)[C@H](Cc1ccccc1)N(C)C)C(C)C)C(=O)N[C@@H](Cc1ccccc1)C(=O)N[C@H](C(=O)N[C@@H](Cc1ccc(O)cc1)C(=O)NCC(=O)N[C@@H](CCC(=O)O)C(=O)N[C@@H](CC(C)C)C(=O)N[C@@H](C)C(=O)N[C@H](CCCNC(=N)N)C(=O)N[C@@H](CC(C)C)C(=O)N[C@H](CCCCN)C(N)=O)[C@@H](C)O` (NMe2Phe-VPIFTYGELA[dR]L[dK]-NH2), on motilin receptor (setting [5]), the IC50 is 1450 pM. The compound also returned a negative logarithm of the EC50 (pEC50) in series [1] of 7.69. Besides, in series [2], the T1/2 came out at 47. In series [3], this compound came in with an ED50 of 0.35 nmol.
Take `CC[C@H](C)[C@H](NC(=O)[C@@H]1CCCN1C(=O)[C@@H](NC(=O)[C@H](Cc1ccccc1)NC)C(C)C)C(=O)N[C@@H](Cc1ccccc1)C(=O)N[C@H](C(=O)N[C@@H](Cc1ccc(O)cc1)C(=O)NCC(=O)N[C@@H](CCC(=O)O)C(=O)N[C@@H](CC(C)C)C(=O)N[C@@H](CCC(N)=O)C(=O)N[C@H](CCCNC(=N)N)C(=O)N[C@@H](CC(C)C)C(=O)N[C@@H](CCC(N)=O)C(=O)O)[C@@H](C)O` [[N-MePhe^1, D-Arg^12, Leu^13]pMOT(1-14)] (H-[NMeF]VPIFTYGELQ[dR]LQ-OH): the IC50 on motilin receptor (setting [5]) is 1910 pM. The pEC50 in series [1] turned out to be 7.71. The same compound showed a T1/2 in series [2] of 30. In series [3], the ED50 is 0.40 nmol.
Consider `CC[C@H](C)[C@H](NC(=O)[C@@H]1CCCN1C(=O)[C@@H](NC(=O)[C@H](Cc1ccccc1)NC)C(C)C)C(=O)N[C@@H](Cc1ccccc1)C(=O)N[C@H](C(=O)N[C@@H](Cc1ccc(O)cc1)C(=O)NCC(=O)N[C@@H](CCC(=O)O)C(=O)N[C@@H](CC(C)C)C(=O)N[C@@H](CCC(N)=O)C(=O)N[C@@H](CCCNC(=N)N)C(=O)N[C@@H](CC(C)C)C(=O)N[C@@H](CCCCN)C(N)=O)[C@@H](C)O` (H-[NMeF]VPIFTYGELQRLK-NH2), for which, at motilin receptor (setting [5]), the IC50 was 479 pM. The compound further gave a pEC50 in series [1] of 7.74. Also, the T1/2 in series [2] is 20. The ED50 in series [3] was 0.025 nmol.
Turning to `CC[C@H](C)[C@H](NC(=O)[C@@H]1CCCN1C(=O)[C@@H](NC(=O)[C@H](Cc1ccccc1)NC)C(C)C)C(=O)N[C@@H](Cc1ccccc1)C(=O)N[C@H](C(=O)N[C@@H](Cc1ccc(O)cc1)C(=O)NCC(=O)N[C@@H](CCC(=O)O)C(=O)N[C@@H](CC(C)C)C(=O)N[C@@H](C)C(=O)N[C@H](CCCNC(=N)N)C(=O)N[C@@H](CC(C)C)C(=O)N[C@@H](CCCCN)C(N)=O)[C@@H](C)O` (H-[NMeF]VPIFTYGELA[dR]LK-NH2), at motilin receptor (setting [5]), the IC50 is 468 pM. In series [1], this compound had a pEC50 of 8.01. The compound also registered a T1/2 in series [2] of 34.3. The compound further gave an ED50 in series [3] of 0.30 nmol.
Taken in the same sequence, the figures for “FVPIFTYGELQRLQ [[Leu^13]pMOT(1-14), reference compound]” were 4370 pM, 7.55, 7.5 and 20.4 nmol.
Compound `CC[C@H](C)[C@H](NC(=O)[C@@H]1CCCN1C(=O)[C@@H](NC(=O)[C@@H](N)Cc1ccccc1)C(C)C)C(=O)N[C@@H](Cc1ccccc1)C(=O)N[C@H](C(=O)N[C@@H](Cc1ccc(O)cc1)C(=O)NCC(=O)N[C@@H](CCC(=O)O)C(=O)N[C@@H](CC(C)C)C(=O)N[C@@H](CCC(N)=O)C(=O)N[C@@H](CCCNC(=N)N)C(=O)N[C@@H](CCSC)C(=O)N[C@@H](CCC(N)=O)C(=O)N[C@@H](CCC(=O)O)C(=O)N[C@@H](CCCCN)C(=O)N[C@@H](CCC(=O)O)C(=O)N[C@@H](CCCNC(=N)N)C(=O)N[C@@H](CC(N)=O)C(=O)N[C@@H](CCCCN)C(=O)NCC(=O)N[C@@H](CCC(N)=O)C(=O)O)[C@@H](C)O` [motilin] had an equilibrium dissociation constant (Kd) on motilin receptor of 759 pM. For the same compound, in series [4], the “half-life (t1/2)” value is 4.5 min.
Take `CC[C@H](C)[C@H](NC(=O)[C@@H]1CCCN1C(=O)[C@@H](NC(=O)[C@H](Cc1ccccc1)NC)C(C)C)C(=O)N[C@@H](Cc1ccccc1)C(=O)N[C@H](C(=O)N[C@@H](Cc1ccc(O)cc1)C(=O)NCC(=O)N[C@@H](CCC(=O)O)C(=O)N[C@@H](CC(C)C)C(=O)N[C@@H](C)C(=O)N[C@H](CCCNC(=N)N)C(=O)N[C@@H](CC(C)C)C(=O)N[C@H](CCC(N)=O)C(N)=O)[C@@H](C)O` (H-[NMeF]VPIFTYGELA[dR]L[dQ]-NH2): the IC50 on motilin receptor (setting [5]) is 851 pM. Also, the negative logarithm of the EC50 (pEC50) in series [1] is listed as 7.97. Moreover, the T1/2 in series [2] was 32.6. For the same compound, the ED50 in series [3] was determined as 0.40 nmol.
Taken in the same sequence, the figures for `CC[C@H](C)[C@H](NC(=O)[C@@H]1CCCN1C(=O)[C@@H](NC(=O)[C@H](Cc1ccccc1)[N+](C)(C)C)C(C)C)C(=O)N[C@@H](Cc1ccccc1)C(=O)N[C@H](C(=O)N[C@@H](Cc1ccc(O)cc1)C(=O)NCC(=O)N[C@@H](CCC(=O)O)C(=O)N[C@@H](CC(C)C)C(=O)N[C@@H](C)C(=O)N[C@H](CCCNC(=N)N)C(=O)N[C@@H](CC(C)C)C(=O)N[C@@H](CCCCN)C(N)=O)[C@@H](C)O` (X1-VPIFTYGELA[dR]LK-NH2) were 1290 pM, 7.64, 125 and 0.12 nmol.
On to `CC[C@H](C)[C@H](NC(=O)[C@@H]1CCCN1C(=O)[C@@H](NC(=O)[C@@H](N)Cc1ccccc1)C(C)C)C(=O)N[C@@H](Cc1ccccc1)C(=O)N[C@H](C(=O)N[C@@H](Cc1ccc(O)cc1)C(=O)NCC(=O)N[C@@H](CCC(=O)O)C(=O)N[C@@H](CC(C)C)C(=O)N[C@@H](CCC(N)=O)C(=O)N[C@@H](CCCNC(=N)N)C(=O)N[C@@H](CC(C)C)C(=O)N[C@@H](CCC(N)=O)C(=O)N[C@@H](CCC(=O)O)C(=O)N[C@@H](CCCCN)C(=O)N[C@@H](CCC(=O)O)C(=O)N[C@@H](CCCNC(=N)N)C(=O)N[C@@H](CC(N)=O)C(=O)N[C@@H](CCCCN)C(=O)NCC(=O)N[C@@H](CCC(N)=O)C(=O)O)[C@@H](C)O` [[Leu^13]pMOT(1-22), reference compound], for which the IC50 on motilin receptor (pIC50, negative logarithm of the concentration displacing 50% of [125I-Tyr7, Nle13]motilin(porcine) from rabbit antral smooth muscle membranes) was 661 pM. The compound further came in with a negative-log EC50 (pEC50) in series [1] of 8.13. Moreover, in series [2], the T1/2 stood at 30.2. The same compound yielded an ED50 in series [3] of 0.17 nmol.

(Values after US5422341A, “Motilin-like polypeptides with gastrointestinal motor stimulating activity” (Ohmeda Pharmaceutical Products Division Inc., priority 1993, dated 1995).)
